Numbered stars: 1 amine (or outer) side, 2 acyl side, 3 side chain; on linkers, the order of the positions; unused ones are H or OH. Square brackets hold non-standard residues; d marks the D form. Peptide text beside a SMILES is read from it. X1 = CO[C@H]([C@@H](C)C(=O)[*:2])[C@@H]1C[C@@H]2C[C@@H]2N1[*:1]; X4 = C=C1C[C@@H]([C@H](OC)[C@@H](C)C(=O)[*:2])N([*:1])C1; Dolaproine = CO[C@@H]([C@@H]1CCCN1)[C@@H](C)C(=O)O; Phe(2,4-Cl2) = N[C@@H](Cc1ccc(Cl)cc1Cl)C(=O)O; Dil = CC[C@H](C)[C@H](NC)[C@@H](CC(=O)O)OC; Phe(3-Cl) = N[C@@H](Cc1cccc(Cl)c1)C(=O)O; Phe(3-F) = N[C@@H](Cc1cccc(F)c1)C(=O)O; Phe(4-Me) = Cc1ccc(C[C@H](N)C(=O)O)cc1; Phe(2-F) = N[C@@H](Cc1ccccc1F)C(=O)O; 2Thi = N[C@@H](Cc1cccs1)C(=O)O; NMeV = CN[C@H](C(=O)O)C(C)C
Experiments:
HepG2 tumor cells = test: In vitro tumor cell proliferation inhibition test (CCK-8), HepG2; assay type: cell-based; conditions: Homo sapiens, HepG2, 76 hours incubation
Protocol: (§1) The objective of this experiment is to test the in vitro inhibition effect of the formula (D) according to the present invention on the proliferation of HepG2 tumor cells (human hepatocellular carcinoma cells, Chinese Academy of Sciences cell bank, No. #TCHu 72) and A549 tumor cells (human lung adenocarcinoma, Chinese Academy of Sciences cell bank, No. #TCHu150). The cells were treated with different concentrations of the compound in vitro. After 76 hours incubation, the cell proliferation was detected by CCK-8 reagent (Cell Counting Kit-8, Dojindo, No. CK04), and the activity of the compound in vitro was evaluated according to the IC50 value.
(§2) The following is an example of a method for in vitro proliferation inhibition test of HepG2 cells for the purpose of exemplifying the test of the compounds according to the present invention for the proliferation inhibitory activity on tumor cells in vitro. This method is also applicable to, but not limited to, the in vitro proliferation inhibition tests on other tumor cells.
HepG2 cells in logarithmic growth phase were washed with PBS (phosphate buffer, ThermoFisher) once, and added with 2-3 ml trypsin (0.25% trypsin-EDTA (1×), Gibico, Life Technologies) to digest for 2-3 min. Then, 10-15 ml of cell culture medium (DMEM/F12 medium, Invitrogen; 10% (v/v)) was added after the cells were completely digested. The digested HepG2 cells were eluted, and centrifuged at 1000 rpm for 3 min. The supernatant was discarded, and then 10-20 ml of cell culture medium were added to resuspend the cells to prepare a single cell suspension.
The HepG2 single cell suspension was mixed and the cell density was adjusted to 6×10^4 cells/ml with cell culture medium. The density-adjusted cell suspension was mixed uniformly and added to a 96-well cell culture plate at 100 μl/well. The plates were incubated in a 5% CO2 incubator at 37° C. for 18-20 hours.
(§3) The compound was dissolved with DMSO (dimethylsulfoxide, Shanghai Titan Technology Co., Ltd.) to prepare a storage solution having an initial concentration of 10 mM.
(§4) 10 μl of 10 mM compound was added to the wells of the first column of a U-shaped bottom 96-well plate (sample plate 1), and 90 μl of DMSO was added to each compound sample well of the first column, i.e., the stock solution was diluted 10 times as the starting point. Then, 3-fold gradient dilutions were performed, with each compound concentration […]. The diluent was DMSO solution. 60 μl of 100% DMSO was added to 12th column and 20 μl of 1 mM positive drug control was added to 11th column.
(§5) In a new U-shaped bottom 96-well plate (sample plate 2), each sample from the sample plate 1 was diluted 20 times with the complete medium. Then, in another new U-shaped bottom 96-well plate (sample plate 3), each well sample from the sample plate 2 was subjected to a final 10-fold dilution.
(§6) After the cell pre-culture was completed, the 96-well cell culture plate was removed and the supernatant was discarded. Each sample dilution in the 96-well sample plate 3 was successively added to a 96-well cell culture plate at 100 μl/well. Each compound sample was tested in duplicate at each concentration. […] After completion of the loading operation, the 96-well cell culture plate was incubated at 37° C. for about 76 hours in a 5% CO2 incubator.
(§7) The 96-well cell culture plate was taken and CCK-8 was added to each well at […]. The cell culture plate was gently pat and mixed for more than 10 times and incubated at 37° C. for 2 hours in a 5% CO2 incubator.
(§8) The 96-well cell culture plate was taken and placed in a microplate reader (PerkinElmer, VICTOR 3) and the absorbance at 450 nm was measured using the microplate reader.
(§9) Data was analyzed with Microsoft Excel and Graphpad Prism 5.

A549 tumor cells = test: In vitro tumor cell proliferation inhibition test (CCK-8), A549; assay type: cell-based; conditions: Homo sapiens, A549, 76 hours incubation
Protocol: as §1, §2, §3, §4, §5, §6, §7, §8
In accordance with the above procedure, the inhibition activity of the compound according to the present invention on the proliferation of A549 tumor cells in vitro was tested. The cell culture medium was also DMEM/F12.
as §9

[1] = system: NCI-N87 cells (HER2 overexpressing human gastric cancer cells); test: Tumor inhibition rate test of NCI-N87 transplanted tumor in nude mice; assay type: in vivo; conditions: 60 mg/kg (first dose doubling), IV
From the text: To evaluate and compare the effect of antibody-cytotoxin conjugates according to the present invention on transplanted tumors of NCI-N87 cells (HER2 overexpressing human gastric cancer cells, ATCC, CRL-5822) in nude mice. […] Preparation method: all prepared with physiological saline. […] Feeding environment: SPF level. […] T/C (%)=(T−T0)/(C−C0)×100%, wherein T and C represent the tumor volume at the end of the experiment; T0 and C0 represent the tumor volume at the beginning of the experiment. […] The number of mice at the beginning of the experiment was as follows: Control group n=12, Treatment group n=6.

Molecule | IC50 (HepG2 tumor cells) [nM] | IC50 (A549 tumor cells) [nM] | Mean tumor volume (mm^3) D0 ([1]; D0, 7, D0 = time of first administration) [mm^3] | % T/C D21 ([1]; D0, 7, D21) [%] | % tumor inhibition rate D21 ([1]; D0, 7, D21) [%] | Mean tumor volume (mm^3) D21 ([1]; D0, 7, D21) [mm^3]
CC[C@H](C)[C@@H]([C@@H](CC(=O)N1CCC[C@H]1[C@H](OC)[C@@H](C)C(=O)N[C@@H](Cc1ccc(C)cc1)C(=O)O)OC)N(C)C(=O)[C@@H](NC(=O)[C@@H](NC)C(C)C)C(C)C [Compound 29, (S)-2-((2R,3R)-3-((S)-1-((3R,4S,5S)-4-((S)—N,3-dimethyl-2-((S)-3-methyl-2-(methylamino)butanamido)butanamido)-3-methoxy-5-methylheptanoyl)pyrrolidin-2-yl)-3-methoxy-2-methylpropanamido)-3-(p-tolyl)propanoic acid] (H-[NMeV]V[Dil][Dolaproine][Phe(4-Me)]-OH) | 58.6 | 1.8 | – | – | – | –
CC[C@H](C)[C@@H]([C@@H](CC(=O)N1[C@H]2C[C@H]2C[C@H]1[C@H](OC)[C@@H](C)C(=O)N[C@@H](Cc1cccs1)C(=O)O)OC)N(C)C(=O)[C@@H](NC(=O)[C@@H](NC)C(C)C)C(C)C [Compound 16, (S)-2-((2R,3R)-3-((1S,3S,5S)-2-((3R,4S,5S)-4-((S)—N,3-dimethyl-2-((S)-3-methyl-2-(methylamino)butanamido)butanamido)-3-methoxy-5-methylheptanoyl)-2-azabicyclo[3.1.0]hexan-3-yl)-3-methoxy-2-methylpropanamido)-3-(thiophen-2-yl)propanoic acid] (H-[NMeV]V[Dil][X1][2Thi]-OH) | 13.9 | 53 | – | – | – | –
Pertuzumab | – | – | 115.5 | 42 | 58 | 380.1
CC[C@H](C)[C@@H]([C@@H](CC(=O)N1CCC[C@H]1[C@H](OC)[C@@H](C)C(=O)N[C@@H](Cc1cccc(F)c1)C(=O)O)OC)N(C)C(=O)[C@@H](NC(=O)[C@@H](NC)C(C)C)C(C)C [Compound 32, (S)-2-((2R,3R)-3-((S)-1-((3R,4S,5S)-4-((S)—N,3-dimethyl-2-((S)-3-methyl-2-(methylamino)butanamido)butanamido)-3-methoxy-5-methylheptanoyl)pyrrolidin-2-yl)-3-methoxy-2-methylpropanamido)-3-(3-fluorophenyl)propanoic acid] (H-[NMeV]V[Dil][Dolaproine][Phe(3-F)]-OH) | 17.4 | 13.5 | – | – | – | –
CC[C@H](C)[C@@H]([C@@H](CC(=O)N1CCC[C@H]1[C@H](OC)[C@@H](C)C(=O)N[C@@H](Cc1ccccc1F)C(=O)O)OC)N(C)C(=O)[C@@H](NC(=O)[C@@H](NC)C(C)C)C(C)C [Compound 25, (S)-2-((2R,3R)-3-((S)-1-((3R,4S,5S)-4-((S)—N,3-dimethyl-2-((S)-3-methyl-2-(methylamino)butanamido)butanamido)-3-methoxy-5-methylheptanoyl)pyrrolidin-2-yl)-3-methoxy-2-methylpropanamido)-3-(2-fluorophenyl)propanoic acid] (H-[NMeV]V[Dil][Dolaproine][Phe(2-F)]-OH) | 175 | 200 | – | – | – | –
CC[C@H](C)[C@@H]([C@@H](CC(=O)N1[C@H]2C[C@H]2C[C@H]1[C@H](OC)[C@@H](C)C(=O)N[C@@H](Cc1ccccc1)C(=O)O)OC)N(C)C(=O)[C@@H](NC(=O)[C@@H](NC)C(C)C)C(C)C [Compound 1, (S)-2-((2R,3R)-3-((1S,3S,5S)-2-((3R,4S,5S)-4-((S)—N,3-dimethyl-2-((S)-3-methyl-2-(methylamino)butanamido)butanamido)-3-methoxy-5-methylheptanoyl)-2-azabicyclo[3.1.0]hexan-3-yl)-3-methoxy-2-methylpropanamido)-3-phenylpropanoic acid] (H-[NMeV]V[Dil][X1]F-OH) | 8.6 | 12.8 | – | – | – | –
C=C1C[C@@H]([C@H](OC)[C@@H](C)C(=O)N[C@@H](Cc2ccccc2)C(=O)O)N(C(=O)C[C@@H](OC)[C@H]([C@@H](C)CC)N(C)C(=O)[C@@H](NC(=O)[C@@H](NC)C(C)C)C(C)C)C1 [Compound 9, (S)-2-((2R,3R)-3-((S)-1-((3R,4S,5S)-4-((S)—N,3-dimethyl-2-((S)-3-methyl-2-(methylamino)butanamido)butanamido)-3-methoxy-5-methylheptanoyl)-4-methylenepyrrolidin-2-yl)-3-methoxy-2-methylpropanamido)-3-phenylpropanoic acid] (H-[NMeV]V[Dil][X4]F-OH) | 55 | 114 | – | – | – | –
CC[C@H](C)[C@@H]([C@@H](CC(=O)N1CCC[C@H]1[C@H](OC)[C@@H](C)C(=O)N[C@@H](Cc1ccc(Cl)cc1Cl)C(=O)O)OC)N(C)C(=O)[C@@H](NC(=O)[C@@H](NC)C(C)C)C(C)C [Compound 33, (S)-3-(2,4-dichlorophenyl)-2-((2R,3R)-3-((S)-1-((3R,4S,5S)-4-((S)-N,3-dimethyl-2-((S)-3-methyl-2-(methylamino)butanamido)butanamido)-3-methoxy-5-methylheptanoyl)pyrrolidin-2-yl)-3-methoxy-2-methylpropanamido)propanoic acid] (H-[NMeV]V[Dil][Dolaproine][Phe(2,4-Cl2)]-OH) | 4.66 | 5 | – | – | – | –
CC[C@H](C)[C@@H]([C@@H](CC(=O)N1CCC[C@H]1[C@H](OC)[C@@H](C)C(=O)N[C@@H](Cc1cccc(Cl)c1)C(=O)O)OC)N(C)C(=O)[C@@H](NC(=O)[C@@H](NC)C(C)C)C(C)C [Compound 31, (S)-3-(3-chlorophenyl)-2-((2R,3R)-3-((S)-1-((3R,4S,5S)-4-((S)—N,3-dimethyl-2-((S)-3-methyl-2-(methylamino)butanamido)butanamido)-3-methoxy-5-methylheptanoyl)pyrrolidin-2-yl)-3-methoxy-2-methylpropanamido)propanoic acid] (H-[NMeV]V[Dil][Dolaproine][Phe(3-Cl)]-OH) | 100 | 130 | – | – | – | –

Source: patent publication US20180177890A1, “LIGAND-CYTOTOXIC DRUG CONJUGATE, PREPARATION METHOD THEREOF, AND USE THEREOF” (priority 2015, published 2018)
